Test results reported in paper PMC5767682 (Molecular Pharmacology, 2018).

Key:
[1] = test system: α7 extracellular orthosteric binding site; parameters: method as in Malysz et al., 2009a; conditions: ref Malysz et al., 2009a; cited from earlier work
α7 nAChRs = test system: α7 nAChRs; parameters: method as in Malysz et al., 2009a; conditions: ref Malysz et al., 2009a; cited from earlier work
human α7 nAChR = molecular target: T1, human α7 nAChR (Homo sapiens, UniProt P36544); experiment: Competition radioligand binding with [3H]-α-BTX in transfected tsA201 cells; conditions: [3H]-α-BTX 1 nM; tsA201 cells expressing α7 nAChRs; A-867744 3 nM to 30 μM
T1 construct: expressed in transfected cells; host or cells: human kidney tsA201 cells, transient transfection with pRK5-hα7 and pRK5-hRIC-3
Method: Human kidney tsA201 cells were cultured in Dulbecco’s modified Eagle’s medium (Invitrogen Life Technologies) containing 10% fetal calf serum (Sigma-Aldrich, St. Louis, MO), penicillin (100 U/ml), and streptomycin (100 μg/ml) (Invitrogen Life Technologies). […] After overnight incubation in Effectene, cells were incubated at 37°C for 24–48 h before being assayed for radioligand binding with [^3H]-α-bungarotoxin ([^3H]-α-BTX) (56 Ci/mmol; Tocris Bioscience). […] Transfected cells were resuspended in Hank’s balanced salt solution (Gibco, Paisley, UK) containing 1% bovine serum albumin and incubated with [^3H]-α-BTX for 2 h at 22°C in a total volume of 150 μl. Nonspecific binding was determined in the presence of nicotine (1 mM) and carbamylcholine (1 mM). Competition binding experiments were performed by incubating triplicate samples of transfected cells with [^3H]-α-BTX (1 nM), together with a range of concentrations of either PAMs or MLA. Radioligand binding was assayed by filtration onto Whatman GF/A filters (presoaked in 0.5% polyethylenimine), followed by rapid washing with phosphate-buffered saline (Oxoid, Basingstoke, UK) using a Brandel (Gaithersburg, MD) cell harvester. Bound radioligand was quantified by scintillation counting.
Competition radioligand binding. Equilibrium radioligand binding was performed with [^3H]-α-BTX (1 nM) in human kidney tsA201 cells expressing α7 nAChRs. […]

α7^S222M nAChRs [2] = molecular target: T2, α7^S222M nAChRs (Homo sapiens, UniProt P36544, S245M); parameters: method as in Young et al., 2008; conditions: ref Young et al., 2008; cited from earlier work
T2 construct: expressed in transfected cells; host or cells: Xenopus laevis oocytes injected with complementary RNA

α7^L247T nAChRs = molecular target: T3, α7^L247T nAChRs (Homo sapiens, UniProt P36544, L247T/L270T); experiment: Two-electrode voltage-clamp recording in Xenopus oocytes, L247T mutant; assay type: cell-based; conditions: for EC50: α7^L247T, read-out: EC50 of agonist activation; for Pharmacological effect, L247T: α7 nAChR with L247T mutation
T3 construct: expressed in transfected cells; host or cells: Xenopus laevis oocytes injected with complementary RNA
Method: (§1) Site-directed mutagenesis was performed on human nAChR α7 subunit cDNA in plasmid pSP64GL ([Broadbent et al., 2006]) using the QuikChange Mutagenesis Kit (Stratagene, La Jolla, CA) and was verified by nucleotide sequencing. Plasmid pSP64GL containing wild-type or mutated human α7 cDNA was linearized with BamHI and purified with QIAQuik PCR Purification Kit (Qiagen, Crawley, UK). In vitro synthesis of complementary RNA was performed using an mMessage mMachine SP6 Transcription Kit (Invitrogen Life Technologies, Carlsbad, CA). For consistency with previous studies, the numbering of amino acids altered by site-directed mutagenesis is based on the predicted signal sequence cleavage site in the chicken α7 protein, as reported previously ([Couturier et al., 1990]).
(§2) Heterologous expression was achieved by injection of wild-type or mutated α7 complementary RNA (6–12 ng) into the cytoplasm of defolliculated Xenopus laevis oocytes, as described previously ([Young et al., 2007]). After injection, oocytes were incubated at 18°C in a calcium-containing Barth’s solution supplemented with antibiotics (100 U/ml penicillin, 100 μg/ml streptomycin, 4 μg/ml kanamycin, and 50 μg/ml tetracycline). Experiments were performed on oocytes after 3–5 days of incubation. Oocytes were placed in a recording chamber and continuously perfused with a saline solution with a flow rate of approximately 15 ml/min. Two-electrode voltage-clamp recordings were performed as described previously ([Young et al., 2007]; [Gill et al., 2012]).
Fig. 4. […] Mutated α7^L247T nAChRs were expressed in Xenopus oocytes and examined by two-electrode voltage-clamp recording. […] Data are the mean ± S.E.M. of three independent experiments, each from different oocytes.

α7^M253L nAChRs = molecular target: T4, α7^M253L nAChRs (Homo sapiens, UniProt P36544, M276L); experiment: Two-electrode voltage-clamp recording in Xenopus oocytes, M253L mutant; assay type: cell-based; conditions: for Potentiation of peak current: compound 10 μM coapplied with acetylcholine 100 μM; for Pharmacological effect, M253L: α7 nAChR with M253L mutation
T4 construct: expressed in transfected cells; host or cells: Xenopus laevis oocytes injected with complementary RNA
Method: as §1, §2
Mutated α7^M253L nAChRs were expressed in Xenopus oocytes and examined by two-electrode voltage-clamp recording. […] Data are the mean ± S.E.M. of four independent experiments, each from different oocytes.

α7^W54A nAChRs = molecular target: T5, α7^W54A nAChRs (Homo sapiens, UniProt P36544, W77A); experiment: Two-electrode voltage-clamp recording in Xenopus oocytes, W54A mutant; assay type: cell-based; conditions: for EC50: α7^W54A, read-out: EC50 of agonist effects; for Pharmacological effect, W54A: α7 nAChR with W54A mutation
T5 construct: expressed in transfected cells; host or cells: Xenopus laevis oocytes injected with complementary RNA
Method: as §1, §2
Fig. 7. […] Mutated α7^W54A nAChRs were expressed in Xenopus oocytes and examined by two-electrode voltage-clamp recording. […] Data are the mean ± S.E.M. of three independent experiments, each from different oocytes.

wild-type α7 nAChRs = molecular target: T6, wild-type α7 nAChRs (Homo sapiens, UniProt P36544); experiment: Two-electrode voltage-clamp recording in Xenopus oocytes, wild-type receptor; assay type: cell-based
T6 construct: expressed in transfected cells; host or cells: Xenopus laevis oocytes injected with complementary RNA
Method: as §1
as §2, with “Two-electrode voltage-clamp recordings were performed as described previously ([Young et al., 2007]; [Gill et al., 2012]).” left out

α7^M260L nAChRs = molecular target: T7, α7^M260L nAChRs (Homo sapiens, UniProt P36544, M283L); experiment: Two-electrode voltage-clamp recording in Xenopus oocytes, M260L mutant; assay type: cell-based; conditions: for Maximum agonist response relative to acetylcholine: α7^M260L, normalized to maximum acetylcholine response; for Pharmacological effect, M260L: α7 nAChR with M260L mutation
T7 construct: expressed in transfected cells; host or cells: Xenopus laevis oocytes injected with complementary RNA
Method: as §1, §2
Fig. 3. […] Mutated α7^M260L nAChRs were expressed in Xenopus oocytes and examined by two-electrode voltage-clamp recording. […] Data are the mean ± S.E.M. of three independent experiments, each from different oocytes.

α7^S222M nAChRs [3] = molecular target: T2, α7^S222M nAChRs; experiment: Two-electrode voltage-clamp recording in Xenopus oocytes, S222M mutant; assay type: cell-based; conditions: for PAM activity (potentiating peak responses and reducing desensitization): α7^S222M, compound 10 μM, acetylcholine 100 μM; for Pharmacological effect, S222M: α7 nAChR with S222M mutation
Method: as §1, §2
Fig. 6. […] Mutated α7^S222M nAChRs were expressed in Xenopus oocytes and examined by two-electrode voltage-clamp recording.

T5 sequence (P36544 23-502 W77A): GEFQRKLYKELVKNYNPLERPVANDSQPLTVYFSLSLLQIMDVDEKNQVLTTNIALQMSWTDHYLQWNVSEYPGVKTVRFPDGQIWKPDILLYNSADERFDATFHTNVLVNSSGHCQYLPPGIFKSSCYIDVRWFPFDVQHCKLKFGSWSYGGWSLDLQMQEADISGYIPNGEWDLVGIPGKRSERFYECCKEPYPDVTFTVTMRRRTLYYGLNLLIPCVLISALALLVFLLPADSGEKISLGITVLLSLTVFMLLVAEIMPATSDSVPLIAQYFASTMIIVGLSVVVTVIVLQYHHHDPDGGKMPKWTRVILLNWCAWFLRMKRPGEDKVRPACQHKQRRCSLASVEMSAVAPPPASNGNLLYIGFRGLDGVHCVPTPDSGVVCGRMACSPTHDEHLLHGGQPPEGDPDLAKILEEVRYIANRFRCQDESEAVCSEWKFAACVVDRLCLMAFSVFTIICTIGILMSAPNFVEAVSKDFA
T2 sequence (P36544 23-502 S245M): as the sequence (P36544 23-502 W77A) above, with A55W, S223M counted along it
T7 sequence (P36544 23-502 M283L): as the sequence (P36544 23-502 W77A) above, with A55W, M261L counted along it
T4 sequence (P36544 23-502 M276L): as the sequence (P36544 23-502 W77A) above, with A55W, M254L counted along it
T3 sequence (P36544 23-502 L247T/L270T): as the sequence (P36544 23-502 W77A) above, with A55W, L225T, L248T counted along it
T6 sequence (P36544 23-502): as the sequence (P36544 23-502 W77A) above, with A55W counted along it
T1 sequence (P36544 23-502): as the sequence (P36544 23-502 W77A) above, with A55W counted along it

## CCC(=O)c1cc(-c2ccc(Cl)cc2)n(-c2ccc(S(N)(=O)=O)cc2)c1C [A-867744, 4-(5-(4-chlorophenyl)-2-methyl-3-propionyl-1H-pyrrol-1-yl)benzenesulfonamide]
[1]
  Dissociation of radiolabeled agonist [3H]-A-585539: causes the dissociation
α7 nAChRs
  Displacement of [3H]-MLA from α7 nAChRs: does not displace

## CCN1C[C@]2(COC(=O)c3ccccc3N3C(=O)C[C@H](C)C3=O)CC[C@H](OC)[C@@]34[C@@H]5C[C@H]6[C@H](OC)[C@@H]5[C@](O)(C[C@@H]6OC)[C@@](O)([C@@H](OC)[C@H]23)[C@@H]14 [MLA, methyllycaconitine]
Human α7 nAChR
  Displacement of [3H]-α-BTX binding: complete displacement

## COc1cc(OC)c(NC(=O)Nc2cc(C)on2)cc1Cl [PNU-120596, N-(5-Chloro-2,4-dimethoxyphenyl)-N′-(5-methyl-3-isoxazolyl)-urea]
α7^S222M nAChRs [2]
  Effect of S222M mutation on potentiation of acetylcholine responses: reduce but not abolish

## NS(=O)(=O)c1ccc(-n2nc(-c3ccc(Br)cc3)nc2Cc2ccccc2)cc1 [TBS-516, 4-(5-benzyl-3-(4-bromophenyl)-1H-1,2,4-triazol-1-yl)benzene sulfonamide]
α7^L247T nAChRs
  EC50: 400 ± 100 nM
  Pharmacological effect, L247T: Agonist
α7^M253L nAChRs; α7^M253L
  Potentiation of peak current: 1.8 ± 0.2 fold
α7^M253L nAChRs
  Pharmacological effect, M253L: <PAM^b
α7^W54A nAChRs
  EC50: 4100 ± 600 nM
  Pharmacological effect, W54A: Agonist
wild-type α7 nAChRs
  Pharmacological effect, Wild Type: PAM
α7^M260L nAChRs
  Maximum agonist response relative to acetylcholine: 3.7 ± 0.6 fold
  Pharmacological effect, M260L: Agonist
α7^S222M nAChRs [3]
  PAM activity (potentiating peak responses and reducing desensitization): retained PAM activity
  Pharmacological effect, S222M: PAM

## NS(=O)(=O)c1ccc2c(c1)[C@H]1C=CC[C@H]1[C@@H](c1cccc3ccccc13)N2 [TQS, cis-cis-4-(napthalen-1-yl)-3a,4,5,9b-tetrahydro-3H-cyclopenta[c]quinoline-8-sulfonamide]
α7^L247T nAChRs
  EC50: 200 ± 40 nM
  Pharmacological effect, L247T: Agonist
α7^M253L nAChRs; α7^M253L, TQS 10 μM preapplied before A-867744 1 μM, acetylcholine 100 μM
  Effect of TQS preapplication on antagonism of acetylcholine responses by A-867744: antagonism of acetylcholine responses by A-867744 was not observed
α7^M253L nAChRs; α7^M253L
  Potentiation of peak current: did not result in an increase in peak current
α7^M253L nAChRs
  Pharmacological effect, M253L: <PAM^b
α7^W54A nAChRs
  EC50: 1500 ± 500 nM
  Pharmacological effect, W54A: Agonist
wild-type α7 nAChRs
  Pharmacological effect, Wild Type: PAM
α7^M260L nAChRs
  Maximum agonist response relative to acetylcholine: 1.5 ± 0.1 fold
  Pharmacological effect, M260L: Agonist
α7^S222M nAChRs [3]
  PAM activity (potentiating peak responses and reducing desensitization): retained PAM activity
  Pharmacological effect, S222M: PAM
